Test results: patent US20240025863A1, “SOS1 PROTEIN DEGRADERS, PHARMACEUTICAL COMPOSITIONS THEREOF, AND THEIR THERAPEUTIC APPLICATIONS” (BioTheryX, Inc., priority 2020, published 2024)

Experiments:
Format in all cases: cell-based
H358 cells (G12C) = assay: Cell viability assay (CellTiter-Glo), H358 cells; conditions: Homo sapiens, NCI-H358, 72 h; H358 cells, 3 days incubation, CellTiter-Glo luminescence; read-out: Inhibition of Cancerous Cells IC50 H358 (G12C)
Procedure: (§1) H358, H23, SW48, and AsPC-1 cells were cultured in RPMI 1640 media supplemented with 10% fetal bovine serum, streptomycin, and penicillin. Lovo and SW480 cells were cultured in DMEM media supplemented with 10% fetal bovine serum, streptomycin, and penicillin. The cell lines were plated in their respective medium supplemented with 2.5% fetal bovine serum, streptomycin, and penicillin. All cell lines were plated in white walled 96-well plates at 2,000 cells/well or 384-well plates at 500 cells/well, except Lovo, which were plated at 4,000 or 1,000 cells/well, respectively. The cells were incubated in DMSO (control) or a compound for 3 days at 37° C. under 5% CO2. A CELLTITER-GLO® reagent (100 μL) was then added to each well. After a 10 min incubation with shaking, luminescence was measured using an ENVISION® multimode plate reader.

Lovo cells (G13D) = assay: Cell viability assay (CellTiter-Glo), Lovo cells; conditions: Homo sapiens, 72 h; Lovo cells, 3 days incubation, CellTiter-Glo luminescence; read-out: Inhibition of Cancerous Cells IC50 Lovo (G13D)
Procedure: as §1

SW48 cells (wt) = assay: Cell viability assay (CellTiter-Glo), SW48 cells; conditions: Homo sapiens, 72 h; SW48 cells, 3 days incubation, CellTiter-Glo luminescence; read-out: Inhibition of Cancerous Cells IC50 SW48 (wt)
Procedure: as §1

SW480 cells (G12V) = assay: Cell viability assay (CellTiter-Glo), SW480 cells; conditions: Homo sapiens, 72 h; SW480 cells, 3 days incubation, CellTiter-Glo luminescence; read-out: Inhibition of Cancerous Cells IC50 SW480 (G12V)
Procedure: as §1

| SMILES | IC50 (H358 cells (G12C)) | IC50 (Lovo cells (G13D)) | IC50 (SW48 cells (wt)) | IC50 (SW480 cells (G12V)) |
| --- | --- | --- | --- | --- |
| COc1cc2c(N[C@H](C)c3cccc(Br)c3)nc(C)nc2cc1OCCCCCCCCCCCOc1cc(-c2scnc2C)ccc1CNC(=O)[C@@H]1C[C@@H](O)CN1C(=O)[C@@H](NC(C)=O)C(C)(C)C [Compound D13, (2S,4R)-1-((S)-2-Acetamido-3,3-dimethylbutanoyl)-N-(2-((11-((4-(((R)-1-(3-bromophenyl)ethyl)amino)-6-methoxy-2-methylquinazolin-7-yl)oxy)undecyl)oxy)-4-(4-methylthiazol-5-yl)benzyl)-4-hydroxypyrrolidine-2-carboxamide] | > 10000 nM | 1600 nM | > 10000 nM | 2900 nM |
| CNCc1ccccc1-c1csc([C@H](C)Nc2nc(C)nc3cc(OCCCCCCCN4CCC(c5cc(F)cc6c5CN(C5CCC(=O)N(C)C5=O)C6=O)CC4)c(OC)cc23)c1 (stereo partly drawn) [Compound A53, 3-(6-Fluoro-4-(1-(7-((6-methoxy-2-methyl-4-(((S)-1-(4-(2-((methylamino)-methyl)phenyl)thiophen-2-yl)ethyl)amino)quinazolin-7-yl)oxy)heptyl)piperidin-4-yl)-1-oxoisoindolin-2-yl)-1-methylpiperidine-2,6-dione] | 230 nM | 68 nM | 170 nM | 170 nM |
| COc1cc2c(N[C@H](C)c3cccc(Br)c3)nc(C)nc2cc1OCCCCCCCCC(=O)NCc1ccc2c(c1)CN(C1CCC(=O)NC1=O)C2=O (stereo partly drawn) [Compound A9, 9-((4-(((R)-1-(3-Bromophenyl)ethyl)amino)-6-methoxy-2-methylquinazolin-7-yl)oxy)-N-((2-(2,6-dioxopiperidin-3-yl)-1-oxoisoindolin-5-yl)methyl)nonanamide] | 820 nM | 47 nM | 22 nM | 1200 nM |
| COc1cc2c(N[C@H](C)c3cccc(Br)c3)nc(C)nc2cc1OCCCCCCC(=O)N1CCC(CN2CCN(c3cc4c(cc3F)C(=O)N(C3CCC(=O)NC3=O)C4=O)CC2)CC1 (stereo partly drawn) [Compound A33, 5-(4-((1-(7-((4-(((R)-1-(3-Bromophenyl)ethyl)amino)-6-methoxy-2-methyl-quinazolin-7-yl)oxy)heptanoyl)piperidin-4-yl)methyl)piperazin-1-yl)-2-(2,6-dioxopiperidin-3-yl)-6-fluoroisoindoline-1,3-dione] | > 10000 nM | 180 nM | 3300 nM | 570 nM |
| COc1cc2c(N[C@H](C)c3cccc(Br)c3)nc(C)nc2cc1OCCCCCCC(=O)N[C@H](C(=O)N1C[C@H](O)C[C@H]1C(=O)NCc1ccc(-c2scnc2C)cc1)C(C)(C)C [Compound D1, (2S,4R)-1-((S)-2-(7-((4-(((R)-1-(3-Bromophenyl)ethyl)amino)-6-methoxy-2-methylquinazolin-7-yl)oxy)heptanamido)-3,3-dimethylbutanoyl)-4-hydroxy-N-(4-(4-methyl-thiazol-5-yl)benzyl)pyrrolidine-2-carboxamide] | 1600 nM | 6400 nM | 7900 nM | 1300 nM |
| COc1cc2c(N[C@H](C)c3cccc(Br)c3)nc(C)nc2cc1OCCCCCCCCCCCN1CCC(c2cc3c(cc2F)C(=O)N(C2CCC(=O)NC2=O)C3)CC1 (stereo partly drawn) [Compound A24, 3-(5-(1-(11-((4-(((R)-1-(3-Bromophenyl)ethyl)amino)-6-methoxy-2-methyl-quinazolin-7-yl)oxy)undecyl)piperidin-4-yl)-6-fluoro-1-oxoisoindolin-2-yl)piperidine-2,6-dione] | 1200 nM | 400 nM | 1300 nM | 550 nM |
| COc1cc2c(N[C@H](C)c3cccc(Br)c3)nc(C)nc2cc1OCCCCCCCCCCC(=O)N1CCC(CN2CCN(c3cc4c(cc3F)C(=O)N(C3CCC(=O)NC3=O)C4=O)CC2)CC1 (stereo partly drawn) [Compound A35, 5-(4-((1-(11-((4-(((R)-1-(3-Bromophenyl)ethyl)amino)-6-methoxy-2-methyl-quinazolin-7-yl)oxy)undecanoyl)piperidin-4-yl)methyl)piperazin-1-yl)-2-(2,6-dioxopiperidin-3-yl)-6-fluoroisoindoline-1,3-dione] | > 10000 nM | 540 nM | 4100 nM | 2500 nM |
| COc1cc2c(N[C@H](C)c3cccc(Br)c3)nc(C)nc2c(CCCCCCCN2CCC(c3cc(F)cc4c3CN(C3CCC(=O)NC3=O)C4=O)CC2)c1OC (stereo partly drawn) [Compound A20, 3-(4-(1-(7-(4-(((R)-1-(3-Bromophenyl)ethyl)amino)-6,7-dimethoxy-2-methyl-quinazolin-8-yl)heptyl)piperidin-4-yl)-6-fluoro-1-oxoisoindolin-2-yl)piperidine-2,6-dione] | 830 nM | 950 nM | 810 nM | 1200 nM |
| COc1cc2c(N[C@H](C)c3cccc(C(F)(F)CO)c3)nc(C)nc2cc1OCCCCCCCN1CCC(c2cc3c(cc2F)C(=O)N(C2CCC(=O)NC2=O)C3)CC1 (stereo partly drawn) [Compound A27, 3-(5-(1-(7-((4-(((R)-1-(3-(1,1-Difluoro-2-hydroxyethyl)phenyl)ethyl)amino)-6-methoxy-2-methylquinazolin-7-yl)oxy)heptyl)piperidin-4-yl)-6-fluoro-1-oxoisoindolin-2-yl)-piperidine-2,6-dione] | 1000 nM | 580 nM | 940 nM | 590 nM |
| COc1cc2c(N[C@H](C)c3cccc(Br)c3)nc(C)nc2cc1C1CCN(CCCCCN2CCC(c3cc(F)cc4c3CN(C3CCC(=O)NC3=O)C4=O)CC2)CC1 (stereo partly drawn) [Compound A17, 3-(4-(1-(5-(4-(4-(((R)-1-(3-Bromophenyl)ethyl)amino)-6-methoxy-2-methyl-quinazolin-7-yl)piperidin-1-yl)pentyl)piperidin-4-yl)-6-fluoro-1-oxoisoindolin-2-yl)piperidine-2,6-dione] | 1400 nM | 760 nM | 1100 nM | 950 nM |
| COc1ccc(C2=N[C@@H](c3ccc(Cl)cc3)[C@@H](c3ccc(Cl)cc3)N2C(=O)N2CCN(CC(=O)NCCCCCCCCCCOc3cc4nc(C)nc(N[C@H](C)c5cccc(Br)c5)c4cc3OC)C(=O)C2)c(OC(C)C)c1 [Compound C3, 2-(4-((4S,5R)-4,5-Bis(4-chlorophenyl)-2-(2-isopropoxy-4-methoxyphenyl)-4,5-dihydro-1H-imidazole-1-carbonyl)-2-oxopiperazin-1-yl)-N-(10-((4-(((R)-1-(3-bromophenyl)-ethyl)amino)-6-methoxy-2-methylquinazolin-7-yl)oxy)decyl)acetamide] | > 10000 nM | > 10000 nM | > 10000 nM | > 10000 nM |
| COc1ccc(C2=N[C@@H](c3ccc(Cl)cc3)[C@@H](c3ccc(Cl)cc3)N2C(=O)N2CCN(CC(=O)NCCCCCCOc3cc4nc(C)nc(N[C@H](C)c5cccc(Br)c5)c4cc3OC)C(=O)C2)c(OC(C)C)c1 [Compound C1, 2-(4-((4S,5R)-4,5-Bis(4-chlorophenyl)-2-(2-isopropoxy-4-methoxyphenyl)-4,5-dihydro-1H-imidazole-1-carbonyl)-2-oxopiperazin-1-yl)-N-(6-((4-(((R)-1-(3-bromophenyl)-ethyl)amino)-6-methoxy-2-methylquinazolin-7-yl)oxy)hexyl)acetamide] | > 10000 nM | > 10000 nM | > 10000 nM | > 10000 nM |
| COc1cc2c(N[C@H](C)c3cccc(Br)c3)nc(C)nc2cc1OCCCCCN1CCC(c2cc3c(cc2F)C(=O)N(C2CCC(=O)NC2=O)C3)CC1 (stereo partly drawn) [Compound A21, 3-(5-(1-(5-((4-(((R)-1-(3-Bromophenyl)ethyl)amino)-6-methoxy-2-methyl-quinazolin-7-yl)oxy)pentyl)piperidin-4-yl)-6-fluoro-1-oxoisoindolin-2-yl)piperidine-2,6-dione] | 1100 nM | 380 nM | 430 nM | 430 nM |
| COc1cc2c(N[C@H](C)c3cccc(Br)c3)nc(C)nc2cc1OCCCCCCCCCN1CCC(c2cc3c(cc2F)C(=O)N(C2CCC(=O)NC2=O)C3)CC1 (stereo partly drawn) [Compound A23, 3-(5-(1-(9-((4-(((R)-1-(3-Bromophenyl)ethyl)amino)-6-methoxy-2-methyl-quinazolin-7-yl)oxy)nonyl)piperidin-4-yl)-6-fluoro-1-oxoisoindolin-2-yl)piperidine-2,6-dione] | 760 nM | 330 nM | 300 nM | 290 nM |
| COc1cc2c(N[C@H](C)c3cccc(Br)c3)nc(C)nc2cc1OCCCCCC(=O)NCc1scc2c1CN(C1CCC(=O)NC1=O)C2=O (stereo partly drawn) [Compound A37, 6-((4-(((R)-1-(3-Bromophenyl)ethyl)amino)-6-methoxy-2-methylquinazolin-7-yl)oxy)-N-((5-(2,6-dioxopiperidin-3-yl)-4-oxo-5,6-dihydro-4H-thieno[3,4-c]pyrrol-1-yl)methyl)-hexanamide] | > 10000 nM | > 10000 nM | > 10000 nM | > 10000 nM |
| COc1cc2c(N[C@H](C)c3cccc(Br)c3)nc(C)nc2cc1OCCCCCN1CCC(c2cc(F)cc3c2CN(C2CCC(=O)NC2=O)C3=O)CC1 (stereo partly drawn) [Compound A11, 3-(4-(1-(5-((4-(((R)-1-(3-Bromophenyl)ethyl)amino)-6-methoxy-2-methyl-quinazolin-7-yl)oxy)pentyl)piperidin-4-yl)-6-fluoro-1-oxoisoindolin-2-yl)piperidine-2,6-dione] | 1600 nM | 410 nM | 510 nM | 560 nM |
